Laboratory results reported in patent publication US12575768B2, “Analyte sensor antimicrobial configurations and adhesives” (Abbott Diabetes Care, Inc., priority 2018, dated 2026).

System: gram-positive bacteria strains associated with common skin flora and wound infection
Experiment: modified Kirby-Bauer disk diffusion assay, overall conclusion
Format: cell-based
Settings: conclusion from zone of inhibition measurements of Table 1
Experimental: Example 3: […] Testing of Silver-Based Antimicrobial Quality. In this example, sensors membranes comprising the silver-based antimicrobial compounds of Example 2 (tested in quadruplicate for each of the sensors in Example 2) and the Control of Example 2 were evaluated […] against a variety of gram-positive bacteria strains associated with common skin flora and wound infection, and which were nosocomial-derived using a modified Kirby-Bauer disk diffusion assay for antibiotic susceptibility testing. The bacteria used for evaluation were Staphylococcus aureus (MRSA) (ATCC #33591), Staphylococcus epidermidis (ATCC #12228), Enterococcus faecalis (ATCC #4082), and Streptococcus pyogenes (ATCC #19615). Each were cultured on Tryptic Soy Agar, except for S. pyogenes, which were cultured on Blood Agar.

Row | SMILES | antimicrobial properties (in words)
1 | [Ag][I] [silver iodide] | demonstrate antimicrobial properties
2 | [Cl][Ag] [silver chloride] | demonstrate antimicrobial properties
